Biological target: T1, cOpn5L2 (Gallus gallus, UniProt B3XZF6)
T1 construct: N-terminal peptide MEEQYISKLHPVVDY, C-terminal peptide IRLSPTAKVESQGAARH (antigens)
T1 sequence (B3XZF6 1-348): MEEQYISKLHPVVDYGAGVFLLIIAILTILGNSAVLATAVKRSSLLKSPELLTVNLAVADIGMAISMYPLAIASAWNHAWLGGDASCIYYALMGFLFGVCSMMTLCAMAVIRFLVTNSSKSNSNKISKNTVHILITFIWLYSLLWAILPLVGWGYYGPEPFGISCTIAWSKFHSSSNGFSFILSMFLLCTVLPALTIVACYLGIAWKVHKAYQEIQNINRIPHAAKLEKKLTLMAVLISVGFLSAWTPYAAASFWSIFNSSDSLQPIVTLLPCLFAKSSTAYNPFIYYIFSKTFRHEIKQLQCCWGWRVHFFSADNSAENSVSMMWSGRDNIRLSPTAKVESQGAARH
Experiment: absorption spectra of purified pigment, HPLC of retinal oximes, GTPgammaS binding Gi activation assay
Details: 5 uM retinal added to cell medium, pH 6.5, spectra at 0 C

SMILES	absorption spectra of purified pigment, HPLC of retinal oximes, GTPgammaS bindin (agonist, Gi assay in dark at pH 7.0, 0 C, retinylidene chromophore)	absorption spectra of purified pigment, HPLC of retinal oximes, GTPgammaS bindin (chromophore of UV-absorbing form, UV light converts it to the active all-trans form)
CC1=C(/C=C/C(C)=C/C=C/C(C)=C/C=O)C(C)(C)CCC1 [all-trans-retinal]	all-trans-retinal most likely incorporates directly into cOpn5L2, which results in induction of basal constitutive activity	
CC1=C(/C=C/C(C)=C/C=C\C(C)=C\C=O)C(C)(C)CCC1 [11-cis-retinal]		absorption spectrum and the light-dependent changes of cOpn5L2 reconstituted with 11-cis-retinal

Source: publication PMC3279408, “A Non-Mammalian Type Opsin 5 Functions Dually in the Photoreceptive and Non-Photoreceptive Organs of Birds” (PLoS ONE, 2012)
